Where “and” joins values, the source holds several entries; their conditions need not be identical. Equal values may be shown once. Inconclusive results and toxic doses are left out.
Test system: BDF1 mice, P388 leukemia ip, median survival T/C
Experiment: NCI In Vivo Anticancer Drug Screen. Data for tumor model P388 Leukemia (intraperitoneal) in B6D2F1 (BDF1) mice
Conditions: endpoint: median survival time, higher = longer survival
Procedure, shortened: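 Compound-treated tumour-bearing mice were compared with vehicle-treated controls. Survival was recorded, and the value is the treated-group measurement divided by the control-group measurement (T/C).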

`COC(C(=O)C(O)C(C)O)C1Cc2cc3cc(OC4CC(OC(C)=O)C(OC5CC(O)C(OC)C(C)O5)C(C)O4)cc(O)c3c(O)c2C(=O)C1OC1CC(OC2CC(OC3CC(C)(O)C(OC(=O)C(C)C)C(C)O3)C(O)C(C)O2)C(O)C(C)O1` (stereo unspecified) was tested, and the T/C (dose: 0.05 mg/kg/injection, schedule: Q01DX010 (ip), vehicle: saline) was 113 % of control, the T/C (dose: 0.1 mg/kg/injection, schedule: Q01DX010 (ip), vehicle: saline) was 90 % of control and the T/C (dose: 0.2 mg/kg/injection, schedule: Q01DX010 (ip), vehicle: saline) was 154 % of control. The T/C (dose: 0.25 mg/kg/injection, schedule: Q01DX009 (ip), vehicle: other) was 150 % of control, the T/C (dose: 0.25 mg/kg/injection, schedule: Q01DX009 (ip), vehicle: saline) was 111 % of control and the T/C (dose: 0.25 mg/kg/injection, schedule: Q01DX010 (ip), vehicle: saline) was 154 % of control and 172 % of control. The T/C (dose: 0.36 mg/kg/injection, schedule: Q01DX005 (ip), vehicle: carboxymethylcellulose (CMC)) was 155 % of control, the T/C (dose: 0.37 mg/kg/injection, schedule: Q01DX009 (ip), vehicle: carboxymethylcellulose (CMC)) was 155 % of control and the T/C (dose: 0.37 mg/kg/injection, schedule: Q01DX009 (sc), vehicle: carboxymethylcellulose (CMC)) was 100 % of control. For the same molecule, the T/C (dose: 0.38 mg/kg/injection, schedule: Q01DX010 (ip), vehicle: saline) was 177 % of control, the T/C (dose: 0.4 mg/kg/injection, schedule: Q01DX010 (ip), vehicle: saline) was 157 % of control and 172 % of control and the T/C (dose: 0.5 mg/kg/injection, schedule: Q01DX001 (ip), vehicle: other) was 104 % of control. The T/C (dose: 0.5 mg/kg/injection, schedule: Q01DX009 (ip), vehicle: other) was 162 % of control, the T/C (dose: 0.5 mg/kg/injection, schedule: Q01DX009 (ip), vehicle: saline) was 94 % of control and 100 % of control and the T/C (dose: 0.5 mg/kg/injection, schedule: Q01DX010 (ip), vehicle: saline) was 190 % of control and 213 % of control. The T/C (dose: 0.75 mg/kg/injection, schedule: Q01DX005 (ip), vehicle: carboxymethylcellulose (CMC)) was 165 % of control, the T/C (dose: 0.75 mg/kg/injection, schedule: Q01DX009 (ip), vehicle: carboxymethylcellulose (CMC)) was 190 % of control and the T/C (dose: 0.75 mg/kg/injection, schedule: Q01DX009 (sc), vehicle: carboxymethylcellulose (CMC)) was 100 % of control. For the same molecule, the T/C (dose: 0.75 mg/kg/injection, schedule: Q01DX010 (ip), vehicle: saline) was 218 % of control, the T/C (dose: 1.0 mg/kg/injection, schedule: Q01DX001 (ip), vehicle: other) was 108 % of control and the T/C (dose: 1.0 mg/kg/injection, schedule: Q01DX001 (sc), vehicle: carboxymethylcellulose (CMC)) was 100 % of control. For the same molecule, the T/C (dose: 1.0 mg/kg/injection, schedule: Q01DX009 (ip), vehicle: other) was 179 % of control, the T/C (dose: 1.0 mg/kg/injection, schedule: Q01DX009 (ip), vehicle: saline) was 111 % of control and 100 % of control and the T/C (dose: 1.0 mg/kg/injection, schedule: Q01DX010 (ip), vehicle: saline) was 240 % of control and 227 % of control and 195 % of control. For the same molecule, the T/C (dose: 1.0 mg/kg/injection, schedule: Q## X003 (ip), vehicle: carboxymethylcellulose (CMC)) was 165 % of control, the T/C (dose: 1.0 mg/kg/injection, schedule: Q## X008 (ip), vehicle: carboxymethylcellulose (CMC)) was 155 % of control and the T/C (dose: 1.0 mg/kg/injection, schedule: Q## X024 (ip), vehicle: carboxymethylcellulose (CMC)) was 110 % of control. The T/C (dose: 1.5 mg/kg/injection, schedule: Q01DX005 (ip), vehicle: carboxymethylcellulose (CMC)) was 215 % of control, the T/C (dose: 1.5 mg/kg/injection, schedule: Q01DX009 (ip), vehicle: carboxymethylcellulose (CMC)) was 235 % of control and the T/C (dose: 1.5 mg/kg/injection, schedule: Q01DX009 (oral), vehicle: carboxymethylcellulose (CMC)) was 100 % of control. For the same molecule, the T/C (dose: 1.5 mg/kg/injection, schedule: Q01DX009 (sc), vehicle: carboxymethylcellulose (CMC)) was 104 % of control, the T/C (dose: 1.5 mg/kg/injection, schedule: Q01DX010 (ip), vehicle: saline) was 195 % of control and 218 % of control and the T/C (dose: 1.6 mg/kg/injection, schedule: Q01DX010 (ip), vehicle: saline) was 161 % of control. The T/C (dose: 2.0 mg/kg/injection, schedule: Q01DX001 (ip), vehicle: other) was 116 % of control, the T/C (dose: 2.0 mg/kg/injection, schedule: Q01DX001 (ip), vehicle: saline) was 116 % of control and the T/C (dose: 2.0 mg/kg/injection, schedule: Q01DX001 (sc), vehicle: carboxymethylcellulose (CMC)) was 100 % of control. For the same molecule, the T/C (dose: 2.0 mg/kg/injection, schedule: Q01DX009 (ip), vehicle: saline) was 111 % of control, the T/C (dose: 2.0 mg/kg/injection, schedule: Q01DX010 (ip), vehicle: saline) was 227 % of control and the T/C (dose: 2.0 mg/kg/injection, schedule: Q## X003 (ip), vehicle: carboxymethylcellulose (CMC)) was 150 % of control. For the same molecule, the T/C (dose: 2.0 mg/kg/injection, schedule: Q## X024 (ip), vehicle: carboxymethylcellulose (CMC)) was 90 % of control, the T/C (dose: 3.0 mg/kg/injection, schedule: Q01DX005 (ip), vehicle: carboxymethylcellulose (CMC)) was 260 % of control and the T/C (dose: 3.0 mg/kg/injection, schedule: Q01DX009 (ip), vehicle: carboxymethylcellulose (CMC)) was 95 % of control. The T/C (dose: 3.0 mg/kg/injection, schedule: Q01DX009 (oral), vehicle: carboxymethylcellulose (CMC)) was 90 % of control, the T/C (dose: 3.0 mg/kg/injection, schedule: Q01DX009 (sc), vehicle: carboxymethylcellulose (CMC)) was 100 % of control and the T/C (dose: 3.2 mg/kg/injection, schedule: Q01DX010 (ip), vehicle: saline) was 114 % of control. For the same molecule, the T/C (dose: 4.0 mg/kg/injection, schedule: Q01DX001 (ip), vehicle: carboxymethylcellulose (CMC)) was 120 % of control, the T/C (dose: 4.0 mg/kg/injection, schedule: Q01DX001 (ip), vehicle: other) was 116 % of control and the T/C (dose: 4.0 mg/kg/injection, schedule: Q01DX001 (oral), vehicle: carboxymethylcellulose (CMC)) was 90 % of control. The T/C (dose: 4.0 mg/kg/injection, schedule: Q01DX001 (sc), vehicle: carboxymethylcellulose (CMC)) was 100 % of control, the T/C (dose: 4.0 mg/kg/injection, schedule: Q01DX009 (ip), vehicle: other) was 208 % of control and the T/C (dose: 4.0 mg/kg/injection, schedule: Q## X008 (ip), vehicle: carboxymethylcellulose (CMC)) was 155 % of control. For the same molecule, the T/C (dose: 4.0 mg/kg/injection, schedule: Q## X024 (ip), vehicle: carboxymethylcellulose (CMC)) was 100 % of control, the T/C (dose: 6.0 mg/kg/injection, schedule: Q01DX009 (oral), vehicle: carboxymethylcellulose (CMC)) was 90 % of control and the T/C (dose: 8.0 mg/kg/injection, schedule: Q01DX001 (oral), vehicle: carboxymethylcellulose (CMC)) was 90 % of control. The T/C (dose: 8.0 mg/kg/injection, schedule: Q01DX001 (sc), vehicle: carboxymethylcellulose (CMC)) was 109 % of control, the T/C (dose: 12.0 mg/kg/injection, schedule: Q01DX009 (oral), vehicle: carboxymethylcellulose (CMC)) was 100 % of control and the T/C (dose: 16.0 mg/kg/injection, schedule: Q01DX001 (oral), vehicle: carboxymethylcellulose (CMC)) was 100 % of control. The T/C (dose: 32.0 mg/kg/injection, schedule: Q01DX001 (oral), vehicle: carboxymethylcellulose (CMC)) was 90 % of control, the T/C (dose: 25.0 micrograms/kg/injection, schedule: Q01DX010 (ip), vehicle: saline) was 100 % of control and the T/C (dose: 50.0 micrograms/kg/injection, schedule: Q01DX010 (ip), vehicle: saline) was 122 % of control. For the same molecule, the T/C (dose: 62.5 micrograms/kg/injection, schedule: Q01DX010 (ip), vehicle: saline) was 109 % of control, the T/C (dose: 125.0 micrograms/kg/injection, schedule: Q01DX010 (ip), vehicle: saline) was 109 % of control and the T/C (dose: 200.0 micrograms/kg/injection, schedule: Q01DX010 (ip), vehicle: saline) was 154 % of control. The T/C (dose: 400.0 micrograms/kg/injection, schedule: Q01DX010 (ip), vehicle: saline) was 154 % of control, the T/C (dose: 500.0 micrograms/kg/injection, schedule: Q01DX010 (ip), vehicle: saline) was 209 % of control and the T/C (dose: 800.0 micrograms/kg/injection, schedule: Q01DX010 (ip), vehicle: saline) was 181 % of control.

— PubChem BioAssay AID328 (DTP/NCI, 2004)
